ChEMBL document CHEMBL4477173, “Additional Insights into the Obtusallene Family: Components of Laurencia marilzae” (2016)

Test system: HepG2
Test: Induction of apoptosis in human HepG2 cells assessed as apoptotic cells at 50 uM by Annexin V-FITC/propidium iodide staining based flow cytometry relative to control
Format: functional

| Structure (SMILES) | Activity [%] |
| --- | --- |
| C[C@@H]1O[C@@H](C=C=CBr)C[C@H]2O[C@@H](C[C@H]2Cl)[C@@H](Br)C[C@H]2O[C@H]12 | >65 |
| C[C@@H]1O[C@@H](C=C=CBr)C[C@H]2O[C@@H](C[C@H]2Cl)[C@@H](Br)C[C@@H]2O[C@@H]12 | >70 |
| C[C@H]1/C=C/C[C@H](Br)[C@@H]2C[C@@H](Cl)[C@@H](C[C@H](C=C=CBr)O1)O2 | 47 |
